In US20150044144A1, “DISINFECTANT SOLUTION” (RAYMAT MATERIALS, INC., priority 2012, published 2015):

Assay: Screening stability of different colorants with ORP by UV-Vis
Details: 300 ppm colorant; for Colour / UV-vis stability of colorant in ORP solution: 25° C., vs control water solution

## O=C1OC2(c3ccccc31)c1cc(Br)c(O)c(Br)c1Oc1c2cc(Br)c(O)c1Br [Eosine Free Acid Solvent Red 43 D&C red 21]
Low concentration ORP (30 ppm FAC)
  Colour / UV-vis stability of colorant in ORP solution: the red color disappeared quickly

## O=C([O-])c1ccccc1-c1c2cc(Br)c(=O)c(Br)c-2oc2c(Br)c([O-])c(Br)cc12.[Na+].[Na+] [Eosine YS Acid Red 87 D&C red 22]
High concentration ORP (100 ppm FAC)
  Colour / UV-vis stability of colorant in ORP solution: the red color disappeared quickly

## COc1cc(S(=O)(=O)[O-])c(C)cc1N=Nc1c(O)ccc2cc(S(=O)(=O)[O-])ccc12.[Na+].[Na+] [Food dye FD&C red 40]
High and low FAC ORP solutions, after 10 days
  UV-visible absorbance of the colored ORP solution: decreased significantly
